The text below walks through data of patent US8618154B2, “LXR modulators” (Bristol-Myers Squibb Company, priority 2009, dated 2013).

The target of this experiment is T1, LXRα (Homo sapiens, UniProt Q13133).
T1 construct: Co-transfection expression plasmids, comprising full-length LXRα (pCMX-h LXRα); expressed in transfected cells; host or cells: CV-1 African green monkey kidney cells, transient transfection with FuGENE6
T1 sequence (Q13133 1-447): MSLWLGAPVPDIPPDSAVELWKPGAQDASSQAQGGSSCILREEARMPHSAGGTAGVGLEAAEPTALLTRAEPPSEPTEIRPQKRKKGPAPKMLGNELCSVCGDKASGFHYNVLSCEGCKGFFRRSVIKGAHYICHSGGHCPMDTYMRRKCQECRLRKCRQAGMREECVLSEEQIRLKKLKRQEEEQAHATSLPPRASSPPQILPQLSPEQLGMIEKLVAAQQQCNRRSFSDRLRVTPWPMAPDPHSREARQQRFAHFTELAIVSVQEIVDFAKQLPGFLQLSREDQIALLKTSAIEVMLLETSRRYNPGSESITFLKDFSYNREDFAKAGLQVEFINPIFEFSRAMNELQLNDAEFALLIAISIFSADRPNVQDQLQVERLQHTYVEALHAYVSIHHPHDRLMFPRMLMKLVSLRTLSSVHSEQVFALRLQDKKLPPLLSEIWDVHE
T1 sequence (P19793 1-462 partner): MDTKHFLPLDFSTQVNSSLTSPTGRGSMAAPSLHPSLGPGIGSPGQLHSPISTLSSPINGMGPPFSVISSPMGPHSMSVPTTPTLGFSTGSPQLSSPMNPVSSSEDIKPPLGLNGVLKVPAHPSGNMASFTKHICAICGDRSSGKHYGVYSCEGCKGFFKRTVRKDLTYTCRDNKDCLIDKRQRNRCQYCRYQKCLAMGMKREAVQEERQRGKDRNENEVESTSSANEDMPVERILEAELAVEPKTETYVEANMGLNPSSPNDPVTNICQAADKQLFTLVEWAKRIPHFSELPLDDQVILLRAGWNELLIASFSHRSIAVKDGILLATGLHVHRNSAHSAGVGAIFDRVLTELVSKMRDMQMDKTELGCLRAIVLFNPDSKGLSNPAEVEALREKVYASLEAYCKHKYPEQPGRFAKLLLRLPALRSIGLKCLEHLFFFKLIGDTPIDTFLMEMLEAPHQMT
As to the kind of experiment: LXR/LXRE co-transfection assay (LXRα). It counts as cell-based. The settings on record: for Emax: efficacy relative to high control N-(3-((4-fluorophenyl)-(naphthalene-2-sulfonyl)amino)propyl)-2,2-dimethylpropionamide, read-out: LXRα Eff (%); for EC50: CV-1 cells, LXRE luciferase reporter. From the text:
To measure the ability of compounds to activate or inhibit the transcriptional activity of LXR in a cell based assay, the co-transfection assay was used. It has been shown that LXR functions as a heterodimer with RXR. For the co-transfection assay, expression plasmids for LXRα and LXRβ are introduced separately via transient transfection into mammalian cells along with a luciferase reporter plasmid that contains one copy of a DNA sequence that is bound by LXR-RXR heterodimers (LXRE; Willy, P. et. al. 1995). LXRs heterodimerize with the endogenous RXR. Treatment of transfected cells with an LXR agonist increases the transcriptional activity of LXR, which is measured by an increase in luciferase activity.
Co-transfection expression plasmids, comprising full-length LXRα (pCMX-h LXRα or LXRβ (pCMX-hLXRβ), reporter plasmid (LXREx1-Tk-Luciferase), and control (pCMX-Galactosidase expression vector) (Willey et al. Genes & Development 9 1033-1045 (1995)).
CV-1 cells were prepared 24 hours prior to the experiment by plating them into T-175 flasks or 500 cm^2 dishes in order to achieve 70-80% confluency on the day of the transfection. The number of cells to be transfected was determined by the number of plates to be screened. Each well of a 384 well plate requires ˜8000 cells. DNA Transfection Reagent was prepared by mixing the required plasmid DNAs with a cationic lipid transfection reagent FuGENE6 (Roche) by following the instructions provided with the reagents. Optimal DNA amounts were determined empirically per cell line and size of vessel to be transfected. For each T175 cm^2 flask a total of 20 μg of DNA, 60 μl of Fugene 6 and 1 ml of Optimem was mixed and added. Cells were then incubated at least 5 hours at 37° C. to prepare screening cells.
Assay plates were prepared by dispensing 5 μL, of compound per well of a 384 well plate to achieve final compound concentration of 10 μM and no more than 0.5% DMSO. Media was removed from the screening cells, the cells trypsinized, harvested cells by centrifugation, counted, and plated at a density of approximately 8000 cells per well in the 384 well assay plate prepared above in a volume of about 45 μL. Assay plates containing both compounds and screening cells (50 μL, in total volume) were incubated for 20 hours at 37° C.
After incubation with compounds, media was removed from the cells and luciferase assay reagent (30 μL/well) added. After ˜2 minutes at ambient temperature, the assay plates were read on a luminometer (PE Biosystems Northstar reader with on-board injectors, or equivalent).
The LXR/LXRE co-transfection assay can be used to establish the EC50/IC50 values for potency and percent activity or inhibition for efficacy. Efficacy defines the activity of a compound relative to a high control ((N-(3-((4-fluorophenyl)-(naphthalene-2-sulfonyl)amino)propyl)-2,2-dimethylpropionamide)) or a low control (DMSO/vehicle). The dose response curves are generated from a 10 point curve with concentrations differing by ½ LOG units.
The data from this assay is fitted to the following equation, from which the EC50 value may be solved: Y=Bottom+(Top−Bottom)/(1+10^((logEC50-X)*HillSlope)).
The EC50/IC50 is therefore defined as the concentration at which an agonist or antagonist elicits a response that is half way between the Top (maximum) and Bottom (baseline) values. The EC50/IC50 values represented are the averages of at least 2 and normally 3 independent experiments. The determination of the relative efficacy or % control for an agonist is by comparison to the maximum response achieved by ((N-(3-((4-fluorophenyl)-(naphthalene-2-sulfonyl)-amino)propyl)-2,2-dimethylpropionamide) that is measured individually in each dose response experiment.

Broadly, the EC50 is the concentration needed to bring the measured effect to its halfway point.

Each structure is given as a SMILES string.

In the case of `CC(C)(O)c1cn(-c2ccc(-c3cc(F)c(CO)c(S(C)(=O)=O)c3)cc2F)c(C(C)(C)c2c(Cl)cccc2Cl)n1` [Example 9, 2-(2-(2-(2,6-dichlorophenyl)propan-2-yl)-1-(3,3′-difluoro-4′-(hydroxymethyl)-5′-(methylsulfonyl)biphenyl-4-yl)-1H-imidazol-4-yl)propan-2-ol], the Emax is 20%.
Consider `CC(C)(O)c1cn(-c2ccc(-c3cc(F)c(CO)c(S(C)(=O)=O)c3)cc2)c(C(C)(C)c2cccc(F)c2Cl)n1` [Example 4, 2-(2-(2-(2-chloro-3-fluorophenyl)propan-2-yl)-1-(3′-fluoro-4′-(hydroxymethyl)-5′-(methylsulfonyl)biphenyl-4-yl)-1H-imidazol-4-yl)propan-2-ol], for which the Emax came to 12%.
Consider `CC(C)(O)c1cn(-c2ccc(-c3cc(F)c(CO)c(S(C)(=O)=O)c3)cc2F)c(Cc2ccccc2C(F)(F)F)n1` [Example 12, 2-(1-(3,3′-difluoro-4′-(hydroxymethyl)-5′-(methylsulfonyl)biphenyl-4-yl)-2-(2-(trifluoromethyl)benzyl)-1H-imidazol-4-yl)propan-2-ol], for which the EC50 is less than 100 nM and the Emax was determined as 13%.
In the case of `Cc1ccccc1Cc1nc(C(C)(C)O)cn1-c1ccc(-c2cc(F)c(CO)c(S(C)(=O)=O)c2)cc1` [Example 17, 2-(1-(3′-fluoro-4′-(hydroxymethyl)-5′-(methylsulfonyl)biphenyl-4-yl)-2-(2-methylbenzyl)-1H-imidazol-4-yl)propan-2-ol], the half-maximal effective concentration (EC50) fell in the range of 101 to 1000 nM and the Emax came to 13%.
`CC(C)(O)c1cn(-c2ccc(-c3cc(F)c(CO)c(S(C)(=O)=O)c3)cc2F)c(Cc2ccccc2F)n1` [Example 16, 2-(1-(3,3′-difluoro-4′-(hydroxymethyl)-5′-(methylsulfonyl)biphenyl-4-yl)-2-(2-fluorobenzyl)-1H-imidazol-4-yl)propan-2-ol]: the EC50 was less than 100 nM and the Emax came to 19%.
In turn, `CC(C)(O)c1cn(-c2ccc(-c3cc(F)c(CO)c(S(C)(=O)=O)c3)cc2)c(Cc2cc(F)ccc2Cl)n1` [Example 19, 2-[2-(2-Chloro-5-fluoro-benzyl)-1-(3′-fluoro-4′-hydroxymethyl-5′-methanesulfonyl-biphenyl-4-yl)-1H-imidazol-4-yl]-propan-2-ol] showed an EC50 of more than 1000 nM.
